According to patent US10993983B2, “Cyclic peptide epitopes and small-molecule mimics for inducing autophagy” (TRUSTEES OF TUFTS COLLEGE, priority 2016, dated 2021):
*1 amine or outer side, *2 acyl side, *3 side chain or, on linkers, in order; H or OH if unused. Where a SMILES comes first, the peptide text is derived from it. Bridges are numbered along the chain shown (N, C = ends). Where no end group is shown, it is not given here. [ ]: non-standard residue; d: D form. The star is where a group is joined. NH(CH2CH2O)2(CH2)6Cl = ClCCCCCCOCCOCCN*; oXylylene = c1ccc(C[*:2])c(C[*:1])c1; Suc = O=C(CCC(=O)[*:2])[*:1]; Carboxymethyl = O=C(O)C*; Pent4ynoyl = C#CCCC(=O)*

Tests used:
GFP-LC3 transgenic mice [1] = assay: GFP-LC3 puncta in muscle tissue of GFP-LC3 transgenic mice; type: in vivo; settings: for autophagy induction in vivo (GFP-LC3 puncta in muscle), result in words: i.p. injection, muscle tissue after 6 hours, Tat-11mer 15 mg/kg, D-(Tat-11mer) 15 mg/kg, DD5-o 15, 30 mg/kg
Procedure: To show whether Tat-11mer and DD5-o have similar in vivo activity, we tested their ability to induce autophagy in GFP-LC3 transgenic mice^59 as described.^10 Peptides were delivered via intraperitoneal injection, and after 6 hours, muscle tissue was collected. GFP-LC3 puncta were imaged in thin sections and counted by an observer blinded to experimental condition (FIG. 10, a,b).
(§1) HeLa/GFP-LC3 cells generated as previously shown,^10 treated with peptides for 3 hour as described above. […] After 6 h, mice were sacrificed and fixed by perfusion with 4% PFA in PBS. Tissues were fixed in 4% PFA overnight, 15% sucrose for 4 hours, and 30% sucrose overnight before frozen sections were prepared and used for fluorescence microscopy analysis as described.^16 GFP-LC3 puncta were quantified per 2500 μm^2 of tissue. Animal experiments were approved by the UTSW Institutional Animal Care Use Committee and performed in accordance with institutional guidelines.

HeLa cells = assay: Autophagy induction judged by p62 and LC3 immunoblots together; type: cell-based; settings: HeLa cells; for concentration at which autophagy induction (p62 degradation and LC3 lipidation) was observed: immunoblot, 3 hour treatment
Outline: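 HeLa cells exposed to peptide (acetyl N-cap, C-terminal amide) for 3 h in acidified OPTI-MEM, then lysed and immunoblotted for p62 and LC3. Activity is the lowest concentration giving both p62 degradation and LC3-I to LC3-II conversion, scored semi-quantitatively.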

HeLa/GFP-LC3 cells = assay: GFP-LC3 puncta assay with and without bafilomycin A1; type: cell-based
Procedure: as §1

HeLa-htt103Q cells [2] = assay: Htt aggregate assay; type: cell-based
Procedure: Along with proteasomal degradation, autophagy is the major pathway by which aggregated proteins are removed from the cytoplasm.
HeLa-htt103Q cells were cultured as described previously.^60 For the Htt103Q aggregate assay, cells were fixed with 2% PFA in PBS and CFP-positive aggregates […] were counted via fluorescence microscopy by an observer blinded to experimental condition.

[3] = background; cited from earlier work
GFP-LC3 transgenic mice [4] = settings: background; 20 mg/kg; cited from earlier work
HeLa-htt103Q cells [5] = settings: 20 μM; previously shown; cited from earlier work
[6] = test system: HaLo-GFP-Mito+mCherry-DHFR HeLa cells; assay: Chloroalkane Penetration Assay (CAPA); type: in vitro ADME; settings: flow cytometry
From the text: FIGS. 19A-19C. Chloroalkane Penetration Assay quantitates relative cytosolic access of exogenously added DD5-o. 19A. Schematic showing the experimental procedure of CAPA, which uses a HaloEnzyme-GFP-expressing HeLa cell line. […] For CAPA, cells are pre-treated with vehicle or peptide, washed, and chased with HTag-TAMRA. Cells treated with cell-penetrant molecules have had their Haloenzyme blocked, thus preventing the HTag-TAMRA from covalently labeling the cells. 19B. Representative images of cells after CAPA, showing Haloenzyme-GFP fluorescence, Halotag-TAMRA fluorescence and the overlay of the two. […] 19C. […]
The Chloroalkane Penetration Assay is described in detail in U.S. Provisional Application No. 62/424,955, filed Nov. […] Following this incubation period, the amount of unreacted Haloenzyme was measured by chasing with a Haloligand-bearing dye (here, Htag-TAMRA). The relative amount of red cellular fluorescence after this chase was then quantified by flow cytometry. […] We evaluated CAPA with HTag-cTMP, a small molecule previously used as a tool for cytosolic protein localization.^71 As quantitated by flow cytometry, we observed inhibition of the HTag-TAMRA signal when cells were pre-incubated with HTag-cTMP, and this inhibition was dose-dependent with respect to amount of the HTag-cTMP used in the pre-incubation step. […]

## C#CCCC(=O)N[C@H](C(=O)N[C@@H]1CSCc2ccccc2CSC[C@H](C(=O)N[C@@H](Cc2ccccc2)C(=O)N[C@@H](Cc2cnc[nH]2)C(=O)N[C@H](C(=O)N[C@@H](Cc2c[nH]c3ccccc23)C(=O)N[C@@H](Cc2cnc[nH]2)C(N)=O)[C@@H](C)CC)NC(=O)[C@H](C)NC(=O)[C@H](CC(N)=O)NC1=O)C(C)C [DD5-o, (pa)-VcNAcFHIWH] (Pent4ynoyl-V[dC]NA[dC]FHIWH-NH2; linker 2-5 via oXylylene)
GFP-LC3 transgenic mice [1]
  autophagy induction in vivo (GFP-LC3 puncta in muscle), result in words: induced autophagy at 15 and 30 mg/kg in a dose-dependent manner
HeLa cells
  concentration at which autophagy induction (p62 degradation and LC3 lipidation) was observed: 20 µM
HeLa cells; p62 and LC3 immunoblots
  autophagy induction, result in words: nearly equal potency
HeLa/GFP-LC3 cells; 3 hours in serum-free media
  concentration at which autophagy was induced (GFP-LC3 puncta): 10 µM
HeLa-htt103Q cells [2]; 20 μM
  percentage of cells with small htt103Q aggregates and number of small aggregates per cell: significant decrease

## YGRKKRRQRRRGGTNVFNATFEIWHDGEFGT [Tat-Beclin 1]
[3]
  concentration at which autophagic flux is significantly increased in cell culture: 10 µM
HeLa cells
  concentration at which autophagy induction (p62 degradation and LC3 lipidation) was observed: 10 µM
GFP-LC3 transgenic mice [4]
  autophagy induction in mice, result in words: induces autophagy when administered to mice at 20 mg/kg
HeLa-htt103Q cells [2]; 12.5 μM
  activity in htt103Q aggregate assay: no activity
HeLa-htt103Q cells [5]
  number of small and large htt103Q aggregates: decrease the number of small, but not large, htt103Q aggregates

## (pa)-VcNAcFHIWH (Pent4ynoyl-V[dC]NA[dC]FHIWH; linker 2-5 via ortho‑xylene (inferred); not fully specified (C-terminus); printed as (pa)-VcNAcFHIWH) [LL5-o, ortho-xylene linker; stereoisomer with two L-cysteines, negative control]
GFP-LC3 transgenic mice [1]
  autophagy induction in vivo (GFP-LC3 puncta in muscle), result in words: no effect
HeLa-htt103Q cells [2]; equimolar concentrations
  clearance of htt103Q aggregates by control peptides: no significant clearance of aggregates

## CC[C@H](C)[C@H](NC(=O)[C@H](Cc1c[nH]cn1)NC(=O)[C@H](Cc1ccccc1)NC(=O)[C@@H](CSCC(=O)O)NC(=O)[C@H](C)NC(=O)[C@H](CC(N)=O)NC(=O)[C@@H](CSCC(=O)O)NC(=O)[C@@H](NC(=O)CCC(=O)NCCOCCOCCCCCCCl)C(C)C)C(=O)N[C@@H](Cc1c[nH]c2ccccc12)C(=O)N[C@@H](Cc1c[nH]cn1)C(N)=O [HTag-DD5-neg, (HTag)-VcNAcFHIWH] ({NH(CH2CH2O)2(CH2)6Cl-Suc}-V[dC](Carboxymethyl)NA[dC](Carboxymethyl)FHIWH-NH2)
[6]
  inhibition of HTag-TAMRA fluorescence (cytosolic access), result in words: little inhibition of HTag-TAMRA fluorescence

## Tat-11mer: eleven residues derived from Beclin 1, with a Gly-Gly linker and Tat sequence of the N-terminus (SEQ ID NO: 63) (Ac-YGRKKRRQRRRGGVWNATFHIWHD-NH2)
GFP-LC3 transgenic mice [1]; equimolar doses
  in vivo potency relative to full-length Tat-Beclin 1: 2- to 4 fold
GFP-LC3 transgenic mice [1]
  autophagy induction in vivo (GFP-LC3 puncta in muscle), result in words: largest increase in autophagosome formation
HeLa cells
  concentration at which autophagy induction (p62 degradation and LC3 lipidation) was observed: 5 µM
HeLa/GFP-LC3 cells; activity at 10 μM similar to DD5-o at 40 μM
  fold more potent activation of autophagy (GFP-LC3 puncta): roughly 4 fold
HeLa-htt103Q cells [2]; 10 μM
  percentage of cells with small htt103Q aggregates and number of small aggregates per cell: significant decrease

## CC[C@H](C)[C@H](NC(=O)[C@H](Cc1c[nH]cn1)NC(=O)[C@H](Cc1ccccc1)NC(=O)[C@H]1CSCc2ccccc2CSC[C@@H](NC(=O)[C@@H](NC(=O)CCC(=O)NCCOCCOCCCCCCCl)C(C)C)C(=O)N[C@@H](CC(N)=O)C(=O)N[C@@H](C)C(=O)N1)C(=O)N[C@@H](Cc1c[nH]c2ccccc12)C(=O)N[C@@H](Cc1c[nH]cn1)C(N)=O [HTag-DD5-o, (HTag)-VcNAcFHIWH] ({NH(CH2CH2O)2(CH2)6Cl-Suc}-V[dC]NA[dC]FHIWH-NH2; linker 2-5 via oXylylene)
[6]
  inhibition of HTag-TAMRA fluorescence (cytosolic access), result in words: dose-dependent suppression of the HTag-TAMRA signal
